According to US11712438B2, “Phenyl derivatives as PGE2 receptor modulators” (IDORSIA PHARMACEUTICALS LTD, priority 2017, dated 2023):

Tests used:
Experiment in all cases: cell-based
PTGER2 (EP2) = PTGER2 (EP2) (Homo sapiens, UniProt P43116)
EP4 = EP4 (Homo sapiens, UniProt P35408);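 note: inhibition of PGE2-evoked (6 nM) cAMP accumulation in BT549 breast cancer cells endogenously expressing EP4, cAMP read by HTRF competitive immunoassay after 30 min at room temperature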
EP2 = EP2 (Homo sapiens, UniProt P43116);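 note: SF295 glioblastoma cells with endogenous EP2 only, PGE2-stimulated cAMP accumulation read by HTRF competitive immunoassay, 45 min pre-incubation then 30 min at room temperature, IBMX in buffer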
EP2, sequence (P43116 whole entry): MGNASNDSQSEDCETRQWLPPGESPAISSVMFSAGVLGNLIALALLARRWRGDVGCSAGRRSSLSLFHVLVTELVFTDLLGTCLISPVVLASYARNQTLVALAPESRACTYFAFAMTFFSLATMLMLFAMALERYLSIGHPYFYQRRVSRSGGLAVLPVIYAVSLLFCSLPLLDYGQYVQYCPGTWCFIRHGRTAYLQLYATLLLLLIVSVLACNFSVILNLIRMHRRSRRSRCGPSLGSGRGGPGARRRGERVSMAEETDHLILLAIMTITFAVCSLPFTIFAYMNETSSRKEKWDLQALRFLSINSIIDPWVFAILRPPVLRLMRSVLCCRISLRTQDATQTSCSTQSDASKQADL

PTRGER4 (EP4) = PTRGER4 (EP4) (Homo sapiens, UniProt P35408);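 note: assay plate preincubated 15 min at 37 °C, after which PGE2 was added at 20 nM final and incubation continued 120 min at 37 °C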
PTRGER4 (EP4), sequence (P35408 whole entry): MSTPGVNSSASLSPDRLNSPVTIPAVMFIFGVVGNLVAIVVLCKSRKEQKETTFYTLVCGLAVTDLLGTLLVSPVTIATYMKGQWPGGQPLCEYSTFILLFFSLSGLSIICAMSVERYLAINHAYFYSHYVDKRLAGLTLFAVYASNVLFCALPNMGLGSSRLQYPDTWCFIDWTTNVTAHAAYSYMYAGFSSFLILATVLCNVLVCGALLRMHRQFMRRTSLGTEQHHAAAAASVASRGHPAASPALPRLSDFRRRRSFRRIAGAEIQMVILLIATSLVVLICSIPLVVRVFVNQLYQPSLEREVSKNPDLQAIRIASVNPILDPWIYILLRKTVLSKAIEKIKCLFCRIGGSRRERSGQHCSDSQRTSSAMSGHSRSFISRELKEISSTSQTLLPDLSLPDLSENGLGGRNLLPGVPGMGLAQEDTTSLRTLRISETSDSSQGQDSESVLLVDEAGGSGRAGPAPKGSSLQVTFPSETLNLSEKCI

PTGER2 (EP2), sequence (P43116 whole entry): as the sequence (P43116 whole entry) above
EP4, sequence (P35408 whole entry): as the sequence (P35408 whole entry) above

Compound | IC50 (PTGER2 (EP2)) [nM] | IC50 (EP4) [nM] | IC50 (EP2) [nM] | IC50 (PTRGER4 (EP4)) [nM]
CCOc1cc(-c2cc(NCCc3ccc(Br)cc3)ncn2)sc1-c1nnn[nH]1 [Example 131, [2-(4-Bromo-phenyl)-ethyl]-{6-[4-ethoxy-5-(1H-tetrazol-5-yl)-thiophen-2-yl]-pyrimidin-4-yl}-amine] | 18 | 11 | 54 | 3
O=c1[nH]c(-c2sc(-c3cc(NCCc4c(F)cc(Br)cc4F)ncn3)cc2C(F)(F)F)no1 [Example 133, 3-(5-{6-[2-(4-Bromo-2,6-difluoro-phenyl)-ethylamino]-pyrimidin-4-yl}-3-trifluoromethyl-thiophen-2-yl)-[1,2,4]oxadiazol-5(4H)-one] | 13 | 44 | 92 | 13
O=c1[nH]c(-c2ccc(-c3cc(NCCc4c(F)cc(Br)cc4F)ncn3)s2)no1 [Example 135, 3-(5-{6-[2-(4-Bromo-2,6-difluoro-phenyl)-ethylamino]-pyrimidin-4-yl}-thiophen-2-yl)-[1,2,4]oxadiazol-5(4H)-one] | 26 | 34 | 15 | 8
CCOc1cc(-c2cc(NCCc3ccc(Br)cc3)ncn2)sc1NC(N)=O [Example 146, (5-{6-[2-(4-Bromo-phenyl)-ethylamino]-pyrimidin-4-yl}-3-ethoxy-thiophen-2-yl)-urea] | 39 | 189 | 249 | 14
CCOc1nc(-c2cc(NCCc3c(F)cc(Br)cc3F)ncn2)sc1C(=O)O [Example 148, 2-{6-[2-(4-Bromo-2,6-difluoro-phenyl)-ethylamino]-pyrimidin-4-yl}-4-ethoxy-thiazole-5-carboxylic acid] | 20 | 8 | 19 | 9
CCc1nc(-c2cc(NCCc3c(F)cc(Br)cc3F)ncn2)sc1C(=O)O [Example 149, 2-{6-[2-(4-Bromo-2,6-difluoro-phenyl)-ethylamino]-pyrimidin-4-yl}-4-ethyl-thiazole-5-carboxylic acid] | 199 | 73 | 67 | 43
CCOc1nc(-c2cc(NCCc3c(F)cc(Br)cc3F)ncn2)sc1-c1noc(=O)[nH]1 [Example 150, 3-(2-{6-[2-(4-Bromo-2,6-difluoro-phenyl)-ethylamino]-pyrimidin-4-yl}-4-ethoxy-thiazol-5-yl)-[1,2,4]oxadiazol-5(4H)-one] | 13 | 9 | 15 | 2
CCc1nc(-c2cc(NCCc3c(F)cc(Br)cc3F)ncn2)sc1-c1noc(=O)[nH]1 [Example 151, 3-(2-{6-[2-(4-Bromo-2,6-difluoro-phenyl)-ethylamino]-pyrimidin-4-yl}-4-ethyl-thiazol-5-yl)-[1,2,4]oxadiazol-5(4H)-one] | 69 | 29 | 43 | 3
CCOc1cc(-c2cc(NCCc3c(F)cc(Br)cc3F)ncn2)sc1-c1nnc(O)o1 [Example 152, 5-(5-{6-[2-(4-bromo-2,6-difluoro-phenyl)-ethylamino]-pyrimidin-4-yl}-3-ethoxy-thiophen-2-yl)-[1,3,4]-oxadiazol-2-ol] | 12 | 30 | 9 | 5
CCOc1cc(-c2cc(NCCc3c(F)cc(Br)cc3F)ncn2)sc1C(=O)NS(C)(=O)=O [Example 154, N-(5-{6-[2-(4-Bromo-2,6-difluoro-phenyl)-ethylamino]-pyrimidin-4-yl}-3-ethoxy-thiophene-2-carbonyl)-methanesulfonamide] | 13 | 66 | 8 | 33
CCOc1cc(-c2cc(NCCc3c(F)cc(Br)cc3F)ncn2)sc1C(=O)NS(N)(=O)=O [Example 155, 5-(6-((4-Bromo-2,6-difluorophenethyl)amino)pyrimidin-4-yl)-3-ethoxy-N-sulfamoylthiophene-2-carboxamide] | 12 | 62 | 20 | 35

More lines, now with the values ahead:

IC50 (PTGER2 (EP2)) [nM] | IC50 (EP4) [nM] | IC50 (EP2) [nM] | IC50 (PTRGER4 (EP4)) [nM] | Compound
15 | 8 | 27 | 3 | CCOc1cc(-c2cc(NCCc3cc(C)c(Br)cc3F)ncn2)sc1-c1noc(=O)[nH]1 [Example 114, 3-(5-{6-[2-(4-Bromo-2-fluoro-5-methyl-phenyl)-ethylamino]-pyrimidin-4-yl}-3-ethoxy-thiophen-2yl)-[1,2,4]oxadiazol-5(4H)-one]
44 | 12 | 51 | 16 | CCOc1cc(-c2cc(NCCc3ccc(Br)c(OC)c3)ncn2)sc1-c1noc(=O)[nH]1 [Example 115, 3-(5-{6-[2-(4-Bromo-3-methoxy-phenyl)-ethylamino]-pyrimidin-4-yl}-3-ethoxy-thiophen-2yl)-[1,2,4]oxadiazol-5(4H)-one]
10 | 8 | 14 | 5 | CCOc1cc(-c2cc(NCCc3ccc(OC)cc3OC)ncn2)sc1-c1noc(=O)[nH]1 [Example 116, 3-(5-{6-[2-(2,4-Dimethoxy-phenyl)-ethylamino]-pyrimidin-4-yl}-3-ethoxy-thiophen-2-yl)-[1,2,4]oxadiazol-5(4H)-one]
692 | 26 | 244 | 16 | CCOc1cc(-c2cc(NCCc3ccc(OC)c(O)c3)ncn2)sc1-c1noc(=O)[nH]1 [Example 117, 3-(3-Ethoxy-5-{6-[2-(3-hydroxy-4-methoxy-phenyl)-ethylamino]-pyrimidin-4-yl}-thiophen-2yl)-[1,2,4]oxadiazol-5(4H)-one]
488 | 148 | 266 | 316 | CCOc1cc(-c2cc(NCCc3ccc(O)c(OC)c3)ncn2)sc1-c1noc(=O)[nH]1 [Example 118, 3-(3-Ethoxy-5-{6-[2-(4-hydroxy-3-methoxy-phenyl)-ethylamino]-pyrimidin-4-yl}-thiophen-2yl)-[1,2,4]oxadiazol-5(4H)-one]
10 | 11 | 17 | 5 | CCOc1cc(-c2cc(NCCc3cccc(OC)c3OC)ncn2)sc1-c1noc(=O)[nH]1 [Example 119, 3-(5-{6-[2-(2,3-Dimethoxy-phenyl)-ethylamino]-pyrimidin-4-yl}-3-ethoxy-thiophen-2-yl)-[1,2,4]oxadiazol-5(4H)-one]
35 | 69 | 13 | 21 | CCOc1cc(-c2cc(NCCc3cc(Br)ccc3OC)ncn2)sc1-c1noc(=O)[nH]1 [Example 120, 3-(5-{6-[2-(5-Bromo-2-methoxy-phenyl)-ethylamino]-pyrimidin-4-yl}-3-ethoxy-thiophen-2yl)-[1,2,4]oxadiazol-5(4H)-one]
66 | 42 | 60 | 9 | CCOc1cc(-c2cc(NCCc3ccc(Cl)c(Cl)c3)ncn2)sc1-c1noc(=O)[nH]1 [Example 121, 3-(5-{6-[2-(3,4-Dichloro-phenyl)-ethylamino]-pyrimidin-4-yl}-3-ethoxy-thiophen-2-yl)-[1,2,4]oxadiazol-5(4H)-one]
29 | 19 | 32 | 27 | CCOc1cc(-c2cc(NCCc3ccc(Cl)cc3Cl)ncn2)sc1-c1noc(=O)[nH]1 [Example 123, 3-(5-{6-[2-(2,4-Dichloro-phenyl)-ethylamino]-pyrimidin-4-yl}-3-ethoxy-thiophen-2-yl)-[1,2,4]oxadiazol-5(4H)-one]
11 | 5 | 49 | 3 | CCOc1cc(-c2cc(NCCc3ccc(Br)cc3F)ncn2)sc1-c1noc(=O)[nH]1 [Example 125, 3-(5-{6-[2-(4-Bromo-2-fluoro-phenyl)-ethylamino]-pyrimidin-4-yl}-3-ethoxy-thiophen-2-yl)-[1,2,4]oxadiazol-5(4H)-one]
22 | 20 | 74 | 7 | CCOc1cc(-c2cc(NCCc3ccc(Br)cc3OC)ncn2)sc1-c1noc(=O)[nH]1 [Example 126, 3-(5-{6-[2-(4-Bromo-2-methoxy-phenyl)-ethylamino]-pyrimidin-4-yl}-3-ethoxy-thiophen-2yl)-[1,2,4]oxadiazol-5(4H)-one]
29 | 47 | 129 | 14 | CCOc1cc(-c2cc(NCCc3ccc(Br)cc3C)ncn2)sc1-c1noc(=O)[nH]1 [Example 127, 3-(5-{6-[2-(4-Bromo-2-methyl-phenyl)-ethylamino]-pyrimidin-4-yl}-3-ethoxy-thiophen-2-yl)-[1,2,4]oxadiazol-5(4H)-one]
22 | 24 | 63 | 4 | CCOc1cc(-c2cc(NCCc3ccc(Br)cc3)ncn2)sc1-c1noc(=O)[nH]1 [Example 130, 3-(5-{6-[2-(4-Bromo-phenyl)-ethylamino]-pyrimidin-4-yl}-3-ethoxy-thiophen-2-yl)-[1,2,4]oxadiazol-5(4H)-one]
18 | 18 | 17 | 6 | Cc1cc(-c2cc(NCCc3c(F)cc(Br)cc3F)ncn2)sc1-c1noc(=O)[nH]1 [Example 136, 3-(5-{6-[2-(4-Bromo-2,6-difluoro-phenyl)-ethylamino]-pyrimidin-4-yl}-3-methyl-thiophen-2-yl)-[1,2,4]oxadiazol-5(4H)-one]
34 | 247 | 123 | 130 | CCOc1cc(-c2cc(NCCc3c(F)cc(Br)cc3F)ncn2)sc1Cc1noc(=O)[nH]1 [Example 138, 3-(5-{6-[2-(4-Bromo-2,6-difluoro-phenyl)-ethylamino]-pyrimidin-4-yl}-3-ethoxy-thiophen-2-ylmethyl)-[1,2,4]oxadiazol-5(4H)-one]
